# Reference: patent US5916906A, “Compositions comprising nicotinylalanine and an inhibitor of glycine conjugation or vitamin B6” (priority 1997, dated 1999)
# Where two headings read alike, the source gives them in different places.
# Columns and labels:
# LP-BM5 MuLV Retrovirus = assay: MAIDS model: disease stage score, attainment of disease score 4 (Kaplan-Meier) and survival up to 28 weeks; format: in vivo, C57BL/6 mice
# Excerpt: Each value represents the mean and one standard standard deviation for groups of surviving mice (at least 4 mice per group) at termination of the study, following 28 weeks post-inoculation by LP-BM5 virus.
# (§1) Each group consisted of 8 mice, except for the virus-negative control group which consisted of 6 mice.
# as §1
# This study was designed to determine whether nicotinylalanine (NAL) alone or in combination with acetylsalicylic acid (ASA) will prevent or alter the course of murine retroviral-induced immunodeficiency disease, MAIDS, in C57BL/6 female mice. The LP-BM5 MuLV virus used for these studies was prepared from chronically infected SC-1 cells (ATCC Cat. No. CRL-1404), as described by Yetter R. A. et al., J. Exp. Med., 168, 623-635, 1988. […] The MAIDS model is well characterized and reproducible in the laboratory, as described by Mosier D. E. et al., J. Exp. Med. 161, 766-784, 1985.
# Measures of disease progression followed the methods developed by Eiseman et al., 1991 (Ibid). Disease scores 0 through +4 are based upon body weight gain and palpable alterations in the size of lymph nodes and spleen. Severity of disease is scored as follows: 0.5, increased body weight and variably detected increase in size of any one lymph node or spleen; +1, clearly detectable increase in the size of a lymph node and spleen; +2, readily detectable (greater than 0.3 cm in diameter) increased size in more than one lymph node and, in particular, enlargement of subcervical, brachial or axillary nodes; +3, increased size of all palpable nodes and palpable splenomegaly (≥0.3 grams); +4, advanced disease with extensive splenomegaly (>1.0 grams) and lymphadenopathy.
# Specific pathogen free, female C57BL/6 mice (5 weeks of age) were purchased from Charles River Breeding Laboratories. All mice were allowed one week to acclimate to housing facilities prior to randomization for study. Animals were marked for identification and placed in microisolator cages with identifying cards (5 mice/cage), where autoclaved food and water were provided ad libitum.
# NAL and ASA were formulated under sterile conditions according to preformulation methods outlined in Remington's Pharmaceutical Sciences Handbook, 18th Edition, 1990, ibid). NAL and ASA were dissolved in sterile phosphate-buffered normal saline solution (i.e., vehicle; Biofluids Inc., Lot 413054), adjusted to between pH 7.2 to 7.4 with […], sterilized by filtration through 0.2 μm bottle-type filters, and dispersed into sterile glass vials, sealed and capped (Wheaton Inc.).
# Except for Group 6 (which began treatment 2 weeks after virus inoculation),test drug injections began 1 day after virus infection and continued every day except weekends (i.e., 5 times per week).
# [1] = Plasma nicotinamide, NAL and NAL-X levels by HPLC after i.p. nicotinylalanine with or without ASA in uninfected mice; format: in vivo, C57BL/6 mice; conditions: for Plasma nicotinamide (NAm) level / concentration at 2 h: mean ± S.E., N=8; for concentration at 2 h: mouse, plasma, ip, 400 mg/kg, read-out: Plasma nicotinylalanine (NAL) level
# Protocol: The concentration of nicotinamide and its major metabolites were determined by comparison of peak area ratios of the unknown versus internal standard (6-methylnicotinamide, Sigma Chemical Company) to the standard curves run in control mouse blood plasma.
# Mice were treated with racemic nicotinylalanine alone (400 mg/kg) or in combination with acetyl salicylic acid (ASA) at a dose of either 20 mg/kg or 100 mg/kg body weight. […] Control mice received the vehicle for the drug compositions, being phosphate buffered saline (PBS), at the same volume on the same dose schedule as the drug-treated mice. Chronic dosing was performed daily for two weeks, Monday through Friday, and one group of mice received only a single (acute) dose of nicotinylalanine. All mice were killed two hours after their final dose and blood was collected by cardiac puncture and stored on ice, until centrifugation in a microfuge at 10,000 rpm to obtain plasma.
# Concentrations of nicotinamide, nicotinamide-oxide, 1-methyl-nicotinamide, and nicotinylalanine extracted from 90% methanol, dried under N2, and reconstituted in water as above were determined by comparison of the peak area ratios of the unknown vs. the internal standard to the standard curve. Concentrations of the unidentified nicotinylalanine metabolite (NAL-X) were determined in the same way as above, except peaks were compared to the standard curve for known nicotinylalanine. The results are expressed as nanomoles of nicotinamide and nicotinylalanine per ml of plasma (nmol/ml).
# [2] = Behavioral toxicity, chronic i.p. dosing in mice; format: in vivo, C57BL/6 mice; conditions: chronic i.p. racemic NAL 400 mg/kg, more than four months
# Protocol: Results from studies in a mouse model of AIDS (i.e., the LP-BM5 strain of murine leukemia virus-induced murine acquired immunodeficiency syndrome, MAIDS) are consistent with efficacy of a parenteral dose in humans of nicotinylalanine (isomer) between about 100 and 200 mg/kg body weight per day in combination with aspirin at about 20 mg/kg per day. […] Connick J. H., et al., Gen. Pharmac., 23:235-239, 1992. […] Vague P., et al., Lancet, I:619-620, 1987. This is consistent with the lack of toxicity reported for NAm in other human studies. (Hoffer A., Schizophrenia, 1:78-87, 1969).
# [3] = rats treated with nicotinylalanine (Decker); cited from earlier work
# [4] = Plasma nicotinamide levels in LP-BM5 infected mice (HPLC); format: in vivo, C57BL/6 mice; conditions: NAL 400 mg/kg; for Mean Plasma Nicotinamide Level: virus-positive, mean ± SD
# Protocol: Mice were sacrificed on Tuesdays at monthly intervals after
# inoculation, approximately 24 hours after their last treatment.
# At time of sacrifice, blood was collected by cardiac puncture and stored
# Results are expressed as mean concentrations ± standard deviation in
# [5] = NAL 400 mg/kg delayed by two weeks, FIG. 5
# [6] = acute (single) NAL 400 mg/kg i.p., two hours after dose
# [7] = chronic (2 Week) dosing of nicotinylalanine alone
# [8] = chronic (2 weeks) NAL 400 mg/kg i.p. alone, two hours after last dose
# [9] = two hours after acute i.p. 400 mg/kg NAL
# [10] = Month 1, ASA 20 mg/kg, AZT as in Table 4
# [11] = Month 1, ~24 h after last treatment, ASA 20 mg/kg, AZT printed 1 mg/kg
# [12] = Month 2, ASA 20 mg/kg, AZT as in Table 4
# [13] = Month 2, ~24 h after last treatment, ASA 20 mg/kg, AZT printed 1 mg/kg
# [14] = Month 3, ASA 20 mg/kg, AZT as in Table 4
# [15] = Month 3, ~24 h after last treatment, ASA 20 mg/kg, AZT printed 1 mg/kg
# [16] = Month 4, ~24 h after last treatment, ASA 20 mg/kg, AZT printed 1 mg/kg
smiles,measurement,setting,value
"NC(CC(=O)c1cccnc1)C(=O)O (racemic) [NAL, γ-(3-pyridyl)-γ-oxo-α-aminobutyrate]",Survival vs LP-BM5 virus-positive control (log-rank p),"LP-BM5 MuLV Retrovirus; NAL 400 mg/kg after two week delay, FIG. 6",0.2492
same,"Retardation of disease progression (score +4), Log-Rank p",LP-BM5 MuLV Retrovirus; [5],0.0469
same,"Retardation of disease progression (score +4), Wilcoxon p",LP-BM5 MuLV Retrovirus; [5],0.0258
same,Survival vs vehicle-injected control (Wilcoxon p),"LP-BM5 MuLV Retrovirus; NAL 400 mg/kg delayed by two weeks, FIG. 6",0.1756
same,Survival vs LP-BM5 virus-positive control (log-rank p),"LP-BM5 MuLV Retrovirus; treatment from day 1, FIG. 6",0.9621
same,Plasma nicotinamide (NAm) level,[1]; [6],7.4 ± 2.3 nmol/mL
same,Change in plasma nicotinylalanine levels,[1]; [7],nearly ten-fold decrease
same,Nicotinamide plasma level (in words),[1]; [7],return to nearly baseline levels of nicotinamide
same,Plasma nicotinamide (NAm) level,[1]; [8],4.7 ± 1.1 nmol/mL
same,concentration at 2 h,[1]; [6],115 ± 65.6 µM
same,concentration at 2 h,[1]; [8],11.2 ± 4.5 µM
same,Nicotinamide plasma level versus PBS-injected controls,[1]; [9],about twice those found in PBS-injected controls
same,Plasma level of NAL versus NAL-X,[1]; [9],about twice as high
same,Behavioral toxicity,[2],not been associated with obvious behavioral toxicity
same,Increase in N-methylnicotinamide levels in urine,[3],4-5 fold
same,"Ratio of plasma nicotinamide mean to placebo (PBS Control, Group 1)",[4]; [10],1.06
same,"Ratio of plasma nicotinamide mean to placebo (PBS Control, Group 1)","[4]; Month 1, delayed 2 weeks",1.16
same,Mean Plasma Nicotinamide Level,[4]; [11],3.4 ± 0.9 nmol/mL
same,Mean Plasma Nicotinamide Level,"[4]; Month 1, delayed Rx 2 weeks",3.7 ± 1.1 nmol/mL
same,"Ratio of plasma nicotinamide mean to placebo (PBS Control, Group 1)",[4]; [12],1.13
same,"Ratio of plasma nicotinamide mean to placebo (PBS Control, Group 1)","[4]; Month 2, delayed 2 weeks",1.49
same,Mean Plasma Nicotinamide Level,[4]; [13],4.4 ± 0.5 nmol/mL
same,Mean Plasma Nicotinamide Level,"[4]; Month 2, delayed Rx 2 weeks",5.8 ± 0.5 nmol/mL
same,"Ratio of plasma nicotinamide mean to placebo (PBS Control, Group 1)",[4]; [14],1.35
same,"Ratio of plasma nicotinamide mean to placebo (PBS Control, Group 1)","[4]; Month 3, delayed 2 weeks",1.65
same,Mean Plasma Nicotinamide Level,[4]; [15],3.1 ± 0.4 nmol/mL
same,Mean Plasma Nicotinamide Level,"[4]; Month 3, delayed Rx 2 weeks",3.8 ± 0.1 nmol/mL
same,"Ratio of plasma nicotinamide mean to placebo (PBS Control, Group 1)","[4]; Month 4, ASA 20 mg/kg, AZT as in Table 4",1.88
same,"Ratio of plasma nicotinamide mean to placebo (PBS Control, Group 1)","[4]; Month 4, delayed 2 weeks",1.84
same,Mean Plasma Nicotinamide Level,[4]; [16],4.7 ± 0.5 nmol/mL
same,Mean Plasma Nicotinamide Level,"[4]; Month 4, delayed Rx 2 weeks",4.6 ± 0.3 nmol/mL
"Cc1cn([C@H]2C[C@H](N=[N+]=[N-])[C@@H](CO)O2)c(=O)[nH]c1=O [AZT, 3'azido-3'deoxythymidine, reference compound]",Disease score of mice that died prior to termination,LP-BM5 MuLV Retrovirus; Groups 4 and 7,0.5
same,Survival vs LP-BM5 virus-positive control (log-rank p),"LP-BM5 MuLV Retrovirus; treatment from day 1, FIG. 6",0.0308
same,"Ratio of plasma nicotinamide mean to placebo (PBS Control, Group 1)",[4]; [10],1.59
same,Mean Plasma Nicotinamide Level,[4]; [11],5.1 ± 0.6 nmol/mL
same,"Ratio of plasma nicotinamide mean to placebo (PBS Control, Group 1)",[4]; [12],1.54
same,Mean Plasma Nicotinamide Level,[4]; [13],6.0 ± 0.4 nmol/mL
same,"Ratio of plasma nicotinamide mean to placebo (PBS Control, Group 1)",[4]; [14],2.26
same,Mean Plasma Nicotinamide Level,[4]; [15],5.2 ± 3.0 nmol/mL
same,Mean Plasma Nicotinamide Level,[4]; [16],5.8 ± 0.4 nmol/mL
